Assay results from paper PMC11969138, “LNS8801: An Enantiomerically Pure Agonist of the G Protein–Coupled Estrogen Receptor Suitable for Clinical Development” (Cancer Research Communications, 2025).

Tests used:
Experiment in all cases: Eurofins DiscoverX SAFETYscan off-target panel
Format in all cases: cell-based
[1] = target: OPRM1 (Homo sapiens, UniProt P35372)
[2] = target: OPRD1 (Homo sapiens, UniProt P41143)
[3] = target: HTR2A (Homo sapiens, UniProt P28223)
[4] = target: T1, androgen receptor (AR) (Homo sapiens, UniProt P10275)
T1 sequence (P10275 1-920): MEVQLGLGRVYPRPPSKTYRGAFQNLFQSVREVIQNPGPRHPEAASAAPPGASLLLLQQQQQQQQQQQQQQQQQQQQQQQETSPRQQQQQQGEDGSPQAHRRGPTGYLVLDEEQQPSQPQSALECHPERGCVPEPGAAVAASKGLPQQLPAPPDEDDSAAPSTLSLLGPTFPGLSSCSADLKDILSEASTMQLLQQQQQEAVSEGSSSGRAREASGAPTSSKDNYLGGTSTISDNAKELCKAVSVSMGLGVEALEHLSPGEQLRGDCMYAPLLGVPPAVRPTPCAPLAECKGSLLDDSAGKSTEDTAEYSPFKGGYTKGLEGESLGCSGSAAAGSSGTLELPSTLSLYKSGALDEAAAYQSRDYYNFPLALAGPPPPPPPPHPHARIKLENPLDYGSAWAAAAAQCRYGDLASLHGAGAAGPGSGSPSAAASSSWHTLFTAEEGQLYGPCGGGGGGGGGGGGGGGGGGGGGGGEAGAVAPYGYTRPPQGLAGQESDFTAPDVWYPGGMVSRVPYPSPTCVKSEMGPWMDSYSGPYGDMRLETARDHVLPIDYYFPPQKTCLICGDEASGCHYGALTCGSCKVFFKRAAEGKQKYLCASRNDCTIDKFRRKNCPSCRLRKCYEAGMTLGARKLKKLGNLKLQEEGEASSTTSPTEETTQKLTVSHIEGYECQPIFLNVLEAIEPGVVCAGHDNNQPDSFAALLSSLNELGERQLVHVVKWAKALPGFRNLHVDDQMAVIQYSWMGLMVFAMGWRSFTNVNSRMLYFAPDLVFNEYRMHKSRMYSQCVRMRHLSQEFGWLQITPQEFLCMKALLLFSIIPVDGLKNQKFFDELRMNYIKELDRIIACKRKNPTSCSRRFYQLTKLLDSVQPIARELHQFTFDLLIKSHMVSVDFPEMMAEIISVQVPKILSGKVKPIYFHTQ

[5] = target: T2, HTR1A (Homo sapiens, UniProt P08908)
T2 sequence (P08908 1-422): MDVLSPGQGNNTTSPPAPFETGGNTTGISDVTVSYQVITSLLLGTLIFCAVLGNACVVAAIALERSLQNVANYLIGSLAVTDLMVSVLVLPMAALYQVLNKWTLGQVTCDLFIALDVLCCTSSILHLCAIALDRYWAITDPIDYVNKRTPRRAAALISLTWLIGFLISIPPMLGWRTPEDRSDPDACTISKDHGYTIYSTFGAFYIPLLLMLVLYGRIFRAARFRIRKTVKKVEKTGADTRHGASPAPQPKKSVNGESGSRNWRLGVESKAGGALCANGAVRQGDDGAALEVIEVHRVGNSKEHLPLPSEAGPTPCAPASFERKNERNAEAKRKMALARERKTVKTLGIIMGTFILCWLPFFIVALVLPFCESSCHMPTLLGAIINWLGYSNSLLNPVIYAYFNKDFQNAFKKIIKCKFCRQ

[6] = target: T3, ADRA2A (Homo sapiens, UniProt P08913)
T3 sequence (P08913 1-465): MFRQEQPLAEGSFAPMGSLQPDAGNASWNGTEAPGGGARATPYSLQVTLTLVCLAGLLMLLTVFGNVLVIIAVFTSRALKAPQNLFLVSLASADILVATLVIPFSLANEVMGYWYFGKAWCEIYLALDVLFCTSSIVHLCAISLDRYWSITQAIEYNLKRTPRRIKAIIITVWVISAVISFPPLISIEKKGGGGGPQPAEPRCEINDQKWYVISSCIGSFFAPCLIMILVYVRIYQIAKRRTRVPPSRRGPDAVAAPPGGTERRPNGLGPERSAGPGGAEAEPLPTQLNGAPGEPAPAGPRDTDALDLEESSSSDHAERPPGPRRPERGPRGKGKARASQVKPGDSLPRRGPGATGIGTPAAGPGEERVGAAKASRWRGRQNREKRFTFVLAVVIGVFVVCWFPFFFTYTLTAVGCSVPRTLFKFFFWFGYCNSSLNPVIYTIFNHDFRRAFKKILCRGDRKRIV

Sequence of OPRD1 (P41143 whole entry): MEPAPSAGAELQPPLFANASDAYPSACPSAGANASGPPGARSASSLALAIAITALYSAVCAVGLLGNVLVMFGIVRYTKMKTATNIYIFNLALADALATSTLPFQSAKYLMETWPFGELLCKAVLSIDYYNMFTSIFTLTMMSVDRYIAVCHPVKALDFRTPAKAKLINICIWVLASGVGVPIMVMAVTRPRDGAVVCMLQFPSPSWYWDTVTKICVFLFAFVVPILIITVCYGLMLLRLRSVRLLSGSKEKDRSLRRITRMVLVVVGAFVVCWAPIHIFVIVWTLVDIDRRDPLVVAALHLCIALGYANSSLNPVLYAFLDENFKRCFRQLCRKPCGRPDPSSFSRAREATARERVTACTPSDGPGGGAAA
Sequence of OPRM1 (P35372 whole entry): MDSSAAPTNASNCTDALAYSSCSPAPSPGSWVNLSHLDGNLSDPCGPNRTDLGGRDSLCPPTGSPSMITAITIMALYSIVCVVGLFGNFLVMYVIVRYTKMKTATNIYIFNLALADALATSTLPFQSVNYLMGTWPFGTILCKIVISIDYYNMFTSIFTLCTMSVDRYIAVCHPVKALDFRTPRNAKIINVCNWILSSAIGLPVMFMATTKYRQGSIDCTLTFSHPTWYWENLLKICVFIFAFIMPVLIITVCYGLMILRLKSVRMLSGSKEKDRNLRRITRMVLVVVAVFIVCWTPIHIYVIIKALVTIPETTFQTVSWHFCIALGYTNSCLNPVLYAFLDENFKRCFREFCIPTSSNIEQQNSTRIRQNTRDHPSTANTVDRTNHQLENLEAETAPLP
Sequence of HTR2A (P28223 whole entry): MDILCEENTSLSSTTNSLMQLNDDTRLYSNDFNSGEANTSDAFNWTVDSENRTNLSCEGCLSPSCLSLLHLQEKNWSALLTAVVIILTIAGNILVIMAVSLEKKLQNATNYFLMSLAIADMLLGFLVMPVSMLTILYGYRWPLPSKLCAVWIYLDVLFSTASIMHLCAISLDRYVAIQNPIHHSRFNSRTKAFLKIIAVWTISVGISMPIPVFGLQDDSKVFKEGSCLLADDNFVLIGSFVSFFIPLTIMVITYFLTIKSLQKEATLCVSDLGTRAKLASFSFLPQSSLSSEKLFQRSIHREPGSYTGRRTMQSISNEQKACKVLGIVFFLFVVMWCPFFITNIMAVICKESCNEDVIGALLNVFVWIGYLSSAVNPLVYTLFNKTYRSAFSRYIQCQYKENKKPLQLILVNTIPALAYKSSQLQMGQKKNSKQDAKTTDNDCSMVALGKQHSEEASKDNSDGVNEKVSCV

Row | Compound | IC50 [1] [nM] | EC50 [2] [nM] | IC50 [3] [nM] | IC50 [4] [nM] | IC50 [5] [nM] | IC50 [6] [nM]
1 | CC(=O)c1ccc2c(c1)[C@@H]1C=CC[C@@H]1[C@H](c1cc3c(cc1Br)OCO3)N2 (racemic) [LNS8801, 1-[(3aS,4R,9bR)-4-(6-bromo-1,3-benzodioxol-5-yl)-3a,4,5,9b-tetrahydro-3H-cyclopenta[c]quinolin-8-yl] ethanone] | 3500 | 870 | 8200 |  |  | 
2 | CC(=O)c1ccc2c(c1)C1C=CCC1C(c1cc3c(cc1Br)OCO3)N2 (racemic) [LNS8812] |  |  |  | 4800 | 2000 | 2000
